Entries after “also recorded” stand apart in the source; their conditions may differ. Where two headings read alike, the source gives them in different places.
Legend:
[1] = target: T1, native NS4A-NS3 full length protein (Hepatitis C virus genotype 1b, UniProt P26662); assay: 3D-Screen NS4A-NS3 full length mutant profiling platform, Huh7 cells, 3D-sensor VF-9A11, native; assay type: cell-based, HCV genotype 1b; design: the GSGS linker and the NS3 protease (residues 3-631); expressed in transfected cells; host or cells: Huh7 hepatoma cells
Experimental: (§1) Hela cells (ATCC, Molsheim, France) were maintained in EMEM (Minimum Essential Medium Eagle with Earle's Balanced Salt solution without L-Glutamine; Biowhittaker/Cambrex, East Rutherford, N.J., USA) supplemented with 10% FBS (JRH), 2 mM Glutamine (Biowhittaker/Cambrex), 1% Non-essential Amino acids (Biowhittaker/Cambrex), 100 units/ml Penicillin and 100 ug/ml Streptomycin. Cells were kept in a humidified 5% CO2 atmosphere at 37° C. and dissociated using Trypsine-EDTA (1×) when reaching 80-90% confluence. Huh-7 hepatoma derived cells (Nakabayashi H et al, 1982) were maintained in half volume of DMEM (Dulbecco's […] Medium without L-Glutamine; Lonza, Basel, Switzerland) and half volume of Ham's F12 medium (Lonza, Basel, Switzerland) supplemented with 10% FBS (SAFC, USA), 1 mM Glutamine (Lonza, Basel, Switzerland), 0.5 mM Sodium pyruvate (Lonza, Basel, Switzerland), 100 units/ml Penicillin and 100 ug/ml Streptomycin. Cells were kept in a humidified 5% CO2 atmosphere at 37° C. and dissociated using Trypsine-EDTA (1×) when reaching 80-90% confluence. […]
(§2) Cell culture supernatant was discarded and 100 ul of Lysis buffer were added to each well. […] Chemi-luminescence measurement was performed immediately using a Microlumat LB96 luminometer (Berthold, Thoiry, France) with 1 or 10 sec integration time.

[2] = target: T2, NS4A-NS3 full length protein D168V (Hepatitis C virus genotype 1b, UniProt P26662, D1194V); assay: 3D-Screen NS4A-NS3 full length mutant profiling platform, Huh7 cells, D168V; assay type: cell-based, HCV genotype 1b
T2 construct: the GSGS linker and the NS3 protease (residues 3-631); expressed in transfected cells; host or cells: Huh7 hepatoma cells
Experimental: as §1, §2

[3] = target: T3, NS4A-NS3 full length protein A156V (Hepatitis C virus genotype 1b, UniProt P26662, A1182V); assay: 3D-Screen NS4A-NS3 full length mutant profiling platform, Huh7 cells, A156V; assay type: cell-based, HCV genotype 1b
T3 construct: the GSGS linker and the NS3 protease (residues 3-631); expressed in transfected cells; host or cells: Huh7 hepatoma cells
Experimental: as §1, §2

[4] = tested on: protease; settings: described in Lamarre et al, 2003; cited from earlier work
[5] = target: T4, native NS4A-NS3 protease (Hepatitis C virus genotype 1b, UniProt P26662, I1158V/V1140I); assay: 3D-Screen NS4A-NS3 protease platform, luciferase reporter, Hela cells, native; assay type: cell-based, HCV genotype 1b; settings: HeLa; 2 uM final concentration, 3D-sensor V7-62
T4 construct: the NS3 protease (residues 3-181); expressed in transfected cells; host or cells: Hela cells
Experimental: (§3) Cell culture supernatant was discarded and 100 ul of Lysis buffer were added to each well. Following 10 nm of vigorous shaking, the lysate was transferred to white opaque 96 well-plates and 100 ul of Luciferin buffer were added. Chemi-luminescence measurement was performed immediately using a Microlumat LB96 luminometer (Berthold, Thoiry, France) with 1 or 10 sec integration time.
3D-sensors confirmed in yeast were further investigated in Hela cells.

[6] = target: T1, native NS4A-NS3 full length protein; assay: 3D-Screen NS4A-NS3 full length platform, luciferase reporter, Hela cells, native; assay type: cell-based, HCV genotype 1b; design: the GSGS linker and the NS3 protease (residues 3-631); expressed in transfected cells; settings: HeLa; 2 uM final concentration, 3D-sensor H5-34
Experimental: as §3

[7] = target: T5, native NS5BΔ21 (Hepatitis C virus genotype 1b, UniProt P26662); assay: 3D-Screen-NS5B platform, luciferase reporter, Hela cells, native NS5BΔ21; assay type: cell-based, HCV genotype 1b; settings: HeLa, 24 hours; for inhibition at 10 µM: 10 uM final concentration, 3D-sensor N21C272, versus DMSO
T5 construct: expressed in transfected cells; host or cells: Hela cells, plasmid pVVS478
Experimental: Transfections were performed for 2 hours in 100 mm dishes in 2 to 4 million cells with 5 to 20 ug of total DNA complexed to jetPEI (PolyPLus transfection, Illkirch, France) with a N/P ratio of 8 The optimal ratio between the plasmids encoding for the luciferase reporter, the target and the selected 3Dsensor was: 3 ug/1 ug/0.5 ug. Cells were dissociated and 25000 cells per well were seeded in 96 well culture treated plates (BD Biosciences, Erembodegem, Belgium).
Compound library's plates were thawed at room temperature. Drugs were handled by a Genesis workstation (Tecan, Lyon, France) and added to the cells at a 5 uM (in 0.5% DMSO) final concentration. Screening was performed by runs of twenty plates. Hits were identified by measurement of the luciferase activity.
Cell culture supernatant was discarded and 100 ul of Lysis buffer were added to each well. Following […] of vigorous shaking, the lysate was transferred to white opaque 96 well-plates and 100 ul of Luciferin buffer were added. Chemi-luminescence measurement was performed immediately using a Microlumat LB96 luminometer (Berthold, Thoiry, France) with 1 or 10 sec integration time.
Selected hits were synthesized and tested at concentrations varying between 0.01 uM and 100 uM final concentration so as to determine their IC50 on 3 independent experiments.
3D-sensors confirmed in yeast were further investigated in human cells. Among the reasons of choosing Hela cells figured their wide use, easiness of manipulation and capacity of replicating subgenomic HCV replicons (Zhu et al., 2003; Kato et al., 2005).
To validate whether drug's action on our system was stokiometric or not, Hela cells were transiently transfected with three expression plasmids encoding the reporter gene luciferase, the target protein and the conformation sensitive peptide N21C272. After incubation with increasing amounts of reference drugs cVVS-023476 or cVVS-023477, luciferase expression was measured.

[8] = target: T6, NS5BΔ21 (Hepatitis C virus genotype 1b, UniProt P26662); assay type: cell-based, HCV genotype 1b; settings: selective medium lacking histidine, leucine and tryptophane, supplemented with ligand, X-Gal overlay
T6 construct: lexA/truncated HCV polymerase lacking the C-terminal 21 amino-acids fusion protein as a bait; expressed in transfected cells; host or cells: Saccharomyces cerevisiae L40, plasmid pVVS468
Experimental: Yeast cells carrying the bait (NS5BΔ21-LexA) were transformed with the prey represented by a library of random peptides (in frame with the viral VP16 activation domain). […] The interacting peptides were then tested in presence of ligands known to induce conformational changes in the bait NS5B.
The naïve yeast was transformed with the pVVS468 (NS5BΔ21 fused to LexA) according to the Lithium Acetate transformation protocol (Schiestl et al, 1989). […] Resulting double transformants were spread on SD Agar medium lacking Tryptophan and Leucine, and incubated for 48 hours at 30° C. Colonies were then scraped and mixed. 1/500th of the suspension obtained was plated on SD Agar medium lacking Tryptophan, Leucine and Histidine to identify HIS3 reporter's activation. After 3 to 5 days of growth, an X-Gal overlay was performed to identify LacZ activation. An X-Gal solution was mixed with an equal volume of 1% agarose cooled to 50° C. then poured slowly over yeast colonies on the surface of agar plates. The individual clones that stained blue were picked up to be grown overnight in deep wells in order to be further analyzed.
Yeast colonies containing a peptide interacting with the bait were grown overnight in 96-well deepwells in trp-leu-liquid medium. They were then spotted using a plugger either on trp-leu-his-or trp-leu-solid medium supplemented with different concentrations of specific or non specific drugs or an equivalent amount of solvent (DMSO). […] Result was confirmed at least 3 times.
Yeast two-hybrid experiments were carried in the L40 strain (ATCC, Molsheim, France) transformed with a lexA/truncated HCV polymerase lacking the C-terminal 21 amino-acids fusion protein as a bait and the VVS001 peptide library as a prey. […] Conformation sensitive peptides or “3D-sensors” were then identified by addition to the selected individual yeast colonies of cVVS-023477 or cVVS-023476, two anti-NS5B drugs known to induce conformational changes in the target polymerase (FIG. 1b).

[9] = tested on: ER; assay: Yeast two-hybrid spot test, control clone ER + 3D-sensor No 30-2; assay type: cell-based
From the text: (a) Isolation of peptides interacting with the NS5BΔ21 in the yeast two-hybrid-system. Yeast cells carrying the bait (NS5BΔ21-LexA) were transformed with the prey represented by a library of random peptides (in frame with the viral VP16 activation domain). Colonies growing on selective medium and staining blue allowed the isolation of individual peptides that would specifically interact with the polymerase. (b) Isolation of conformation sensitive peptides. The interacting peptides were then tested in presence of ligands known to induce conformational changes in the bait NS5B. The “3D-sensors” were thus identified as the ones whose binding to the target polymerase was prevented by known anti-NS5B. The corresponding colonies didn't show any expression of the selection or reporter gene. (c) Characterization of NS5BΔ21 “3D-sensors” in a spot test. Here were represented 2 selected yeast colonies: one carrying the ER and its specific peptide called No 30-2 isolated previously and used as a control, the other carrying the NS5BΔ21 and its specific peptide called N21C272. Both clones were spotted on selective medium lacking histidine, leucine and tryptophane, supplemented or not with polymerase ligands and overlayed with an X-Gal staining The NS5BΔ21+N21C272 clone grew on selective medium in the absence of any NS5B ligand and stained positive for LacZ. […]

[10] = target: single chain NS4A-NS3 full length A156T mutant fused to Gal4 DBD (yeast; hepatitis C virus genotype 1b), P26662; assay: cell-based or functional assay
[11] = target: single chain NS4A-NS3 full length protein (native) fused to the yeast Gal4 DBD (pVVS772) (yeast; hepatitis C virus genotype 1b), P26662; assay: cell-based or functional assay
[12] = target: single chain NS4A-NS3 full length D168V mutant fused to Gal4 DBD (yeast; hepatitis C virus genotype 1b), P26662; assay: cell-based or functional assay
[13] = target: single chain NS4A-NS3 full length R109K mutant fused to Gal4 DBD (yeast; hepatitis C virus genotype 1b), P26662; assay: cell-based or functional assay
[14] = target: single chain NS4A-NS3 full length A156S mutant fused to Gal4 DBD (yeast; hepatitis C virus genotype 1b), P26662; assay: cell-based or functional assay
[15] = target: single chain NS4A-NS3 full length A156V mutant fused to Gal4 DBD (pVVS783) (yeast; hepatitis C virus genotype 1b), P26662; assay: cell-based or functional assay
[16] = target: single chain NS4A-NS3 full length T54A mutant fused to Gal4 DBD (yeast; hepatitis C virus genotype 1b), P26662; assay: cell-based or functional assay
[17] = target: NS5BΔ21 L30R mutant fused to Gal4 DBD (pVVS475) (yeast; hepatitis C virus genotype 1b), P26662; assay: cell-based or functional assay
[18] = target: NS5BΔ21 L30S mutant fused to Gal4 DBD (pVVS474) (yeast; hepatitis C virus genotype 1b), P26662; assay: cell-based or functional assay
[19] = Huh7, VF-9A11, listed as cVVS-23591

## VFII-N4: NS3 full length 3D-sensor peptide VNAWAWGW (SEQ ID No 65) (NS3 full length peptide sensor VFII-N4)
[1]
  sensitivity of the 3D-sensor to Telaprevir and Ciluprevir: as sensitive as the 3D-Sensor VF-9A11

## COc1ccc2c(O[C@@H]3C[C@H]4C(=O)N[C@]5(C(=O)O)C[C@H]5/C=C\CCCCC[C@H](NC(=O)OC5CCCC5)C(=O)N4C3)cc(-c3csc(NC(C)C)n3)nc2c1 [cVVS-023951, (1S,4R,6S,7Z,14S,18R)-14-cyclopentyloxycarbonylamino-18-[2-(2-isopropylamino-thiazol-4-yl)-7-methoxyquinolin-4-yloxy]-2,15-dioxo-3,16-diazatricyclo[14.3.0.04.6]nonadec-7-ene-4-carboxylic acid]
[1]; native, Huh7, VF-9A11
  resistance profile: sensitivity of the platform to the compound's inhibition: active
[2]; Huh7, VF-9A11
  resistance profile: sensitivity of the platform to the compound's inhibition: high resistance
[2]; [19]
  resistance profile: sensitivity of the platform to the compound's inhibition: resistance in the same range as what was previously reported
[3]; Huh7, VF-9A11
  resistance profile: sensitivity of the platform to the compound's inhibition: high resistance
[3]; [19]
  resistance profile: sensitivity of the platform to the compound's inhibition: resistance in the same range as what was previously reported
[4]
  activity on the protease: low nanomolar range

## CCC[C@H](NC(=O)[C@@H]1[C@H]2CCC[C@H]2CN1C(=O)[C@@H](NC(=O)[C@@H](NC(=O)c1cnccn1)C1CCCCC1)C(C)(C)C)C(=O)C(=O)NC1CC1 [cVVS-023518, 2-(2-{2-Cyclohexyl-2-[(pyrazine-2-carbonyl)-amino]-acetylamino}-3,3-dimethyl-butyryl)-octahydro-cyclopenta[c]pyrrole-1-carboxylic acid (1-cyclopropylaminooxalyl-butyl)-amide]
[5]
  inhibition at 2 µM: 90%
[6]
  inhibition at 2 µM: 60%

## NC(=O)c1ncn([C@@H]2O[C@H](CO)[C@@H](O)[C@H]2O)n1 [Ribavirin]
[7]; 75 uM final concentration, 3D-sensor N21C272
  inhibition at 75 µM: 8.7%

## O=C(O)P(=O)(O)O [Foscarnet]
[7]
  inhibition at 10 µM: 11.7%
[8]
  growth on selective medium and LacZ staining of the NS5BΔ21+N21C272 yeast clone: had no effect; also recorded: didn't show any effect

## O=C(O)CP(=O)(O)O [Phosphonoacetic acid]
[7]
  inhibition at 10 µM: -2.2%
[8]
  growth on selective medium and LacZ staining of the NS5BΔ21+N21C272 yeast clone: had no effect
[8]; listed as PAA
  growth on selective medium and LacZ staining of the NS5BΔ21+N21C272 yeast clone: didn't show any effect

## C[C@]12CC[C@@H]3c4ccc(O)cc4CC[C@H]3[C@@H]1CC[C@@H]2O [Estradiol]
[9]
  sensitivity of the control clone (ER + 3D sensor No 30.2 interaction) to ligand: active

## GTQKEAVIYPCYVPW (modifications not checked) [3D-sensor VF-9A11 fused to the VP16 activation domain]
[10]
  luciferase signal over background: > 3
[11]
  luciferase signal over background: > 3
[12]
  luciferase signal over background: > 3
[13]
  luciferase signal over background: > 3
[14]
  luciferase signal over background: > 3
[15]
  luciferase signal over background: > 3
[16]
  luciferase signal over background: > 3

## DGCARCVASVQLYGD (modifications not checked) [3D-sensor N21C272 fused to the VP16 activation domain]
[17]
  luciferase signal: 3100 RLU
[18]
  luciferase signal: 7640 RLU

— US20110251085A1, “IN VITRO METHOD TO DETERMINE WHETHER A DRUG CANDIDATE ACTIVE AGAINST A TARGET PROTEIN IS ACTIVE AGAINST A VARIANT OF SAID PROTEIN” (VIVALIS, priority 2008, published 2011)
